Some test systems named below: HOP-62 NSCLC; SW-620 colon; MOLT-4 leukemia; SF-295 CNS; MDA-MB-435; NCI-H226 lung; HS 578T breast; SK-OV-3 ovarian; SNB-75 CNS; NCI-H23 lung; U251 CNS; HT29 colon; ACHN renal; HOP-92 NSCLC; RXF 393 renal.
Common to all, as to test: NCI-60 cell line screen, 48 h

Structures are written as SMILES.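 96-well plates; 48 h exposure; 5 concentrations. Endpoints by linear interpolation between flanking doses. Not reached: highest tested concentration assigned. At the TGI there is no net growth.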

This is an account of results in PubChem BioAssay (NCI).

For `C=CC(C)(C)c1c(OC)oc2ccc(OC)c(C)c2c1=O`, the TGI in the assay with HOP-62 NSCLC, with SW-620 colon, with MOLT-4 leukemia, with SF-295 CNS, in the assay with MDA-MB-435 and in the assay on NCI-H226 lung was over 100 µM throughout. For the same compound, the TGI in the assay on HS 578T breast, with SK-OV-3 ovarian, with SNB-75 CNS, in the assay on NCI-H23 lung, in the assay on U251 CNS and in the assay with HT29 colon was over 100 µM throughout. For the same compound, the TGI in the assay on ACHN renal is over 100 µM.
With `O=C(c1ccccc1)c1ccc(N2C(=O)/C(=C/c3cccc([N+](=O)[O-])c3)N=C2c2ccccc2)c(N2C(=O)/C(=C/c3cccc([N+](=O)[O-])c3)N=C2c2ccccc2)c1`, the TGI in the assay on HOP-62 NSCLC is over 100 µM; in the assay on SW-620 colon, over 100 µM; with MOLT-4 leukemia, over 100 µM; in the assay on SF-295 CNS it was over 100 µM; with MDA-MB-435, 29.8 µM; in the assay with HOP-92 NSCLC, over 100 µM. The TGI with HS 578T breast was over 100 µM; in the assay on SK-OV-3 ovarian, over 100 µM; with SNB-75 CNS, 81.6 µM; in the assay with U251 CNS, over 100 µM; with HT29 colon it was over 100 µM; in the assay with ACHN renal, over 100 µM.
On to `CNC(=O)Nn1c(SC)nc2ccccc21`, for which the TGI in the assay with HOP-62 NSCLC, in the assay with SW-620 colon, in the assay with MOLT-4 leukemia, with SF-295 CNS, in the assay on MDA-MB-435 and with NCI-H226 lung was over 100 µM throughout. Also, the TGI with HOP-92 NSCLC, in the assay with HS 578T breast, with SK-OV-3 ovarian, in the assay with RXF 393 renal, in the assay with NCI-H23 lung and in the assay on U251 CNS was over 100 µM each time. The TGI in the assay on HT29 colon and in the assay on ACHN renal was over 100 µM in each case.
On to `O=C(O)[C@@]1(Cc2ccc(O)cc2)C[C@@H]2Cc3ccccc3N2N1`, for which the TGI in the assay with HOP-62 NSCLC, with SW-620 colon, in the assay on MOLT-4 leukemia, in the assay on SF-295 CNS, with MDA-MB-435 and with NCI-H226 lung was over 100 µM each time. Moreover, the TGI with HOP-92 NSCLC, in the assay on HS 578T breast, in the assay with SK-OV-3 ovarian, in the assay with NCI-H23 lung, with U251 CNS and with HT29 colon was over 100 µM in each case. The TGI in the assay on ACHN renal is over 100 µM.
In the case of `CN1CCC2(CC1)C(=O)N(NC(N)=O)C(=O)C2c1ccccc1` (stereo not given), the TGI in the assay on HOP-62 NSCLC, with SW-620 colon, with MOLT-4 leukemia, in the assay on SF-295 CNS, in the assay on MDA-MB-435 and in the assay with NCI-H226 lung was over 100 µM each time. For the same compound, the TGI in the assay with HS 578T breast, with SK-OV-3 ovarian, in the assay on RXF 393 renal, in the assay on SNB-75 CNS, with NCI-H23 lung and in the assay with U251 CNS was over 100 µM in each case. For the same compound, the TGI in the assay on HT29 colon and in the assay on ACHN renal was over 100 µM each time.
As to `Cc1ccc(OC2CC(n3cnc4c(=O)[nH]c(Br)nc43)OC2Oc2ccc(C)cc2)cc1` (stereo not given), the TGI with HOP-62 NSCLC was 49.5 µM; in the assay on SW-620 colon, over 100 µM; with MOLT-4 leukemia, 50.5 µM; in the assay on SF-295 CNS it was 61.9 µM; in the assay with MDA-MB-435 it was 57.1 µM; in the assay on NCI-H226 lung, over 100 µM. Besides, the TGI in the assay on HOP-92 NSCLC is 45.9 µM; in the assay on HS 578T breast, 66.1 µM; with SK-OV-3 ovarian, over 100 µM; in the assay on RXF 393 renal, 60.5 µM; in the assay with NCI-H23 lung, 70.3 µM; with U251 CNS it was 79.9 µM. Besides, the TGI in the assay with HT29 colon turned out to be 83.4 µM; in the assay on ACHN renal, 38 µM.
In the case of `CCOC(=O)c1ccc(N(C)Cc2cnc3nc(N)nc(N)c3n2)cc1`, the TGI in the assay with HOP-62 NSCLC is 54.7 µM; in the assay with SW-620 colon, over 100 µM; in the assay with MOLT-4 leukemia, over 100 µM; in the assay on SF-295 CNS, over 100 µM; in the assay on MDA-MB-435, over 100 µM; in the assay on NCI-H226 lung it was 41.8 µM. Also, the TGI is 73.1 µM in the assay on HS 578T breast; 51.4 µM with SK-OV-3 ovarian; 33 µM with RXF 393 renal; 54 µM in the assay on SNB-75 CNS; over 100 µM in the assay with NCI-H23 lung; over 100 µM in the assay with U251 CNS. For the same compound, the values for the TGI with HT29 colon and with ACHN renal were over 100 µM and 20.2 µM, respectively.
On to `CCCc1c(O)c2ccccc2[nH]c1=O`, for which the TGI in the assay with HOP-62 NSCLC, in the assay with SW-620 colon, with MOLT-4 leukemia, in the assay with SF-295 CNS, with MDA-MB-435 and in the assay with NCI-H226 lung was over 100 µM throughout. Also, the TGI in the assay on HOP-92 NSCLC, in the assay on HS 578T breast, in the assay with SNB-75 CNS, in the assay on NCI-H23 lung, in the assay with U251 CNS and in the assay on HT29 colon was over 100 µM each time. The compound also returned a TGI in the assay on ACHN renal of over 100 µM.
In the case of `Cc1ccc(NC(=O)C23CC4CC(CC(C4)C2)C3)c(C(=O)NNC(=O)c2ccc(Cl)cc2)c1`, the TGI with HOP-62 NSCLC was 49.6 µM; in the assay on SW-620 colon it was over 100 µM; in the assay on MOLT-4 leukemia, 62.3 µM; in the assay on SF-295 CNS, 66.5 µM; in the assay with MDA-MB-435, 37.4 µM; with NCI-H226 lung, 62.6 µM. For the same compound, the TGI in the assay with HOP-92 NSCLC turned out to be 33.5 µM; with HS 578T breast, 33.8 µM; in the assay with SK-OV-3 ovarian it was 39 µM; with RXF 393 renal it was 39.8 µM; in the assay on NCI-H23 lung, 38.8 µM; with U251 CNS, 37.1 µM. For the same compound, the figures for the TGI in the assay on HT29 colon and in the assay with ACHN renal were 72.9 µM and 37.8 µM, respectively.
Turning to `CC1(C)OC[C@@H]([C@H](C=O)OCc2ccccc2)O1`, the TGI with HOP-62 NSCLC, in the assay on SW-620 colon, with MOLT-4 leukemia, with SF-295 CNS, in the assay on MDA-MB-435 and in the assay with NCI-H226 lung was over 100 µM throughout. For the same compound, the TGI in the assay on HOP-92 NSCLC, in the assay on HS 578T breast, in the assay on SK-OV-3 ovarian, in the assay with SNB-75 CNS, with NCI-H23 lung and with U251 CNS was over 100 µM throughout. The TGI in the assay with HT29 colon and with ACHN renal was over 100 µM each time.
